{"source": "patent US10336687B2", "about": "“Selected amide of Y-hydroxybutyric acid and uses thereof in the treatment of alcohol misuse” (priority 2015, dated 2019)", "key": {"[1]": {"conditions": "cited from earlier work"}, "[2]": {"system": "primary cultures of rat hippocampal neurons", "format": "cell-based", "description": "(§1) The neurotoxic effects of alcohol have been well documented, both in animals and humans, and the hippocampus represents a brain area particular sensitive to the detrimental effects of alcohol. Different preclinical models have been employed for studying the neurotoxic effects of alcohol. One of these models consists in exposing organotypic hippocampal cultures to alcohol, which exerts various effects, including a reduction in cell viability, and an increase in reactive oxygen species (ROS).\n(§2) Briefly, primary cultures of rat hippocampal neurons were chronically exposed to ethanol (75 mM; 4 days) and the neuroprotective effects of ACGET61 were assessed by evaluating cell viability (MTT assay), and reactive oxygen species production (rhodamine 123 fluorescence).\nEthanol exposure induced a significant increase in the ROS production (p<0.001), measured by the fluorescence emission of rhodamine 123."}, "[3]": {"system": "Sardinian alcohol preferring (sP) rats", "test": "Maintenance of alcohol intake, 2-bottle free choice regimen between alcohol (10% v/v) and water", "format": "in vivo, rat", "conditions": "acute oral administration", "description": "Anti-alcohol profile of ACGET61 in Sardinian alcohol preferring (sP) rats Sardinian alcohol preferring (sP) rats represents one of the few rat lines selectively bred worldwide for high ethanol preference and consumption (Colombo et al., 2006) and are utilized in multiple experimental procedures validated for the evaluation of different aspects of alcohol drinking. These experimental procedures include Maintenance of alcohol intake, and Operant self-administration of alcohol.\nIn this procedure sP rats were exposed to a 2-bottle free choice regimen between alcohol (10% v/v) and water. Under this condition, the animals can choose between a bottle containing the alcohol solution and a bottle containing water, and voluntarily consume about 6 g/kg/day of alcohol, with a preference for alcohol of about 90%."}, "[4]": {"molecular_target": "T1, mGluR5 (Rattus norvegicus, UniProt P31424)", "T1 construct": "from tissue; host or cells: hippocampal slices", "T1 sequence (P31424 21-1203)": "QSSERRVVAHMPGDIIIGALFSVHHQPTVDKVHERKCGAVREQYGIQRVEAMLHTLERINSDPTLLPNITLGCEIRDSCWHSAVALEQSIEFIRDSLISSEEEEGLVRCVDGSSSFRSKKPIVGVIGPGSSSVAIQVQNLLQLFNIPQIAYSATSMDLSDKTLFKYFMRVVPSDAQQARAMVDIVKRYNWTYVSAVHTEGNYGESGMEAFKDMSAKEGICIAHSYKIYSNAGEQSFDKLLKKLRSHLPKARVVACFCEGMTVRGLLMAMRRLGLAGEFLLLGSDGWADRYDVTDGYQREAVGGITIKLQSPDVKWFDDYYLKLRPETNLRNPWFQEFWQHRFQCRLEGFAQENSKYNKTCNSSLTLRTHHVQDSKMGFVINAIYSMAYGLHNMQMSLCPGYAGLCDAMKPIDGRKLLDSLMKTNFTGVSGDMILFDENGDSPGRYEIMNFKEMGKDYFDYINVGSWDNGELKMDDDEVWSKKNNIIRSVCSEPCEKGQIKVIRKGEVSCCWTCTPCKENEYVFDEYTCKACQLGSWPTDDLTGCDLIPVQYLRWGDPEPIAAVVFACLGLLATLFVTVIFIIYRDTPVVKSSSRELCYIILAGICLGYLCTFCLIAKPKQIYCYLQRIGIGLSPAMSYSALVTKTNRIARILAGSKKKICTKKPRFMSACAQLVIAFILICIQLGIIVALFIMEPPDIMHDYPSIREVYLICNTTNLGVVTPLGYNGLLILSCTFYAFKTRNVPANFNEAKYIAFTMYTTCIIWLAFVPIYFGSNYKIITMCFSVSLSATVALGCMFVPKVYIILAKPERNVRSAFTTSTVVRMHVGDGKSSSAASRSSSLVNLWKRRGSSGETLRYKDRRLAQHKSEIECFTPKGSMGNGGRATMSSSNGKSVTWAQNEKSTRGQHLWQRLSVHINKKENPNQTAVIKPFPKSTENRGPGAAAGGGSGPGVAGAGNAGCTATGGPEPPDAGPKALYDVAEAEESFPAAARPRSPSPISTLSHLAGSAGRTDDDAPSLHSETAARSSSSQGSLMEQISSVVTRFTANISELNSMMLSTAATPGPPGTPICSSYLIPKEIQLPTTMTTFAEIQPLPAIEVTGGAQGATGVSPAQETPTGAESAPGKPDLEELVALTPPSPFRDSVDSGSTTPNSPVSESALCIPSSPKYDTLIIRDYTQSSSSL", "test": "Increase in K+-evoked glutamate outflow induced by the mGluR5 receptor agonist CHPG in hippocampal slices", "format": "cell-based", "conditions": "CHPG 100 μM", "method": "(§3) Based on previous results obtained for GET 73, which influences the aminoacidergic neurotransmission in the rat hippocampus, probably through a complex modulation of the metabotropic glutamate receptors subtype 5 (mGluR5) (Beggiato et al., 2013; Ferraro et al., 2011, 2013) the positional isomer ACGET61 was evaluated in vitro in hippocampal slices, by measuring GABA and glutamate levels in different experimental conditions.\nThe interaction of ACGET61 with the mGluR5 agonist CHPG was explored in KCl stimulated hippocampal slices. […] Specifically, FIG. 5—KCl stimulated Hippocampal slices—K^+ evoked glutamate outflow. The effect of ACGET61 300 pM on the increase in glutamate outflow induced by CHPG 100 μM. ** p<0.01 vs Control; ^∘ p<0.05 vs ACGET61+CHPG."}, "[5]": {"system": "hippocampal slices", "test": "Basal GABA and glutamate outflow in hippocampal slices", "format": "cell-based, rat", "conditions": "10 and 100 μM", "method": "as §3"}, "[6]": {"system": "hippocampal slices", "test": "K+-evoked GABA and glutamate outflow in KCl stimulated hippocampal slices", "format": "cell-based, rat", "method": "as §3\nAdditional studies aimed at exploring the effect of ACGET61 (10 pM-10 μM) in KCl stimulated hippocampal slices were carried out."}, "[7]": {"system": "primary cultures of rat hippocampal neurons", "format": "cell-based", "conditions": "for Minimum effective concentration for neuroprotective effects: hippocampal neurons chronically exposed to ethanol, cell viability and ROS production", "description": "as §1, §2"}, "[8]": {"system": "Sardinian alcohol preferring (sP) rats", "test": "Operant self-administration of alcohol, progressive ratio / break point (PR/BP)", "format": "in vivo, rat", "conditions": "for Effective Doses mg/kg: PR/BP model, sP rats", "description": "(§4) In these procedures sP rats were trained to self-administer alcohol or sucrose by pressing a lever, and the amount of work (lever pressing) requested to obtain alcohol, varied according with the aim of the single schedule of reinforcement, Fixed ratio (FR) or Progressive ratio (PR).\n(§5) Sucrose solution (3% w/v) was systematically employed in these experiments as alternative reinforcer, in order to assess if test compounds exert a selective effect on the alcohol solution (15% v/v) self-administration.\n(§6) In the FR the rat obtain alcohol or sucrose in response to four consecutive lever pressing (FR4), while in the PR the number of lever pressing necessary to obtain alcohol or sucrose increased progressively till the rat stop pressing the lever (Break point; BP). Each FR4 or PR/BP session lasted 30 minutes."}, "[9]": {"system": "Sardinian alcohol preferring (sP) rats", "test": "Operant self-administration of alcohol, fixed ratio FR4", "format": "in vivo, rat", "description": "as §4, §5, §6"}, "[10]": {"system": "Sardinian alcohol preferring (sP) rats", "conditions": "2-bottle free choice model; cited from earlier work"}, "[11]": {"molecular_target": "T1, mGluR5", "conditions": "GET73, same model; cited from earlier work"}, "[12]": {"conditions": "0.01-10 μM, cultures not exposed to ethanol"}, "[13]": {"conditions": "FR4 model, sP rats, GET 73 tested up to 50"}}, "note": "Like-named read-outs stand apart in the source and are kept apart here. Marks after values point to notes of the source that are not given here."}
{"smiles": "O=C(O)CCCO", "note": "[sodium oxybate]", "values": [{"measurement": "Time to peak plasma concentration", "setting": "[1]; after oral administration", "result": "30 to 45", "unit": "min"}, {"measurement": "Bioavailability", "setting": "[1]; in vivo", "result": "about 30%"}, {"measurement": "Half-life", "setting": "[1]; in vivo", "result": "about 30 minutes"}]}
{"smiles": "COCCCC(=O)NCc1ccccc1C(F)(F)F", "note": "[ACGET61, N-[(2-trifluoromethyl)benzyl]-4-methoxybutyramide]", "values": [{"measurement": "ROS production, compound by itself", "setting": "[2]; [12]", "result": "did not affect ROS production"}, {"measurement": "ROS production in ethanol exposed cultures", "setting": "[2]; 0.1, 1, and 10 μM added 1 h before and during ethanol 75 mM, 4 days", "result": "prevented the ethanol-induced increase of ROS production"}, {"measurement": "Duration of effect", "setting": "[3]; ACGET61, Maintenance model, sP rats", "result": 24, "unit": "h"}, {"measurement": "Effect on water and food intake", "setting": "[3]; 25 to 100 mg/kg", "result": "without affecting water and food intake"}, {"measurement": "Effect on the increase in K+-evoked glutamate outflow exerted by CHPG", "setting": "[4]; ACGET61 300 pM", "result": "able to counteract, at least in part"}, {"measurement": "Concentration inhibiting CHPG-induced increase of glutamate in hippocampal slices", "setting": "[4]; KCl stimulated slices", "result": 300, "unit": "pM"}, {"measurement": "Effect on basal release of GABA and glutamate", "setting": "[5]", "result": "No effects"}, {"measurement": "K+-evoked glutamate outflow", "setting": "[6]; 100, 300, and 500 pM", "result": "modest non significant reduction"}, {"measurement": "Effect on K+-evoked GABA and glutamate outflow", "setting": "[6]; concentrations between 10 nM and 10 μM", "result": "did not exert overt effects"}, {"measurement": "K+-evoked GABA outflow", "setting": "[6]; highest concentration (10 μM)", "result": "significant decrease"}, {"measurement": "Cellular viability, compound by itself", "setting": "[7]; [12]", "result": "did not affect cellular viability"}, {"measurement": "Cell viability in ethanol exposed cultures", "setting": "[7]; 0.1, 1, and 10 μM added 1 hour before and during ethanol 75 mM, 4 days, p<0.05 vs ethanol", "result": "prevented the ethanol-induced damage"}, {"measurement": "Minimum effective concentration for neuroprotective effects", "setting": "[7]", "result": 0.1, "unit": "µM"}, {"measurement": "Number of lever pressing and break point for alcohol", "setting": "[8]; 50 and 100 mg/kg, PR, 30 min session", "result": "reduced"}, {"measurement": "Response for sucrose", "setting": "[8]; 50 and 100 mg/kg, PR, sucrose 3% w/v", "result": "able to reduce also the response for sucrose"}, {"measurement": "Effective Doses mg/kg", "setting": "[8]; for alcohol and sucrose", "result": "50-100 * mg/kg"}, {"measurement": "Effect on FR4 operant self-administration of alcohol (lever responses, alcohol and sucrose intake)", "setting": "[9]; 100 mg/kg, 30 min session, p<0.05 vs vehicle", "result": "selective reducing effect on the reinforcing properties of alcohol"}, {"measurement": "Effective Doses", "setting": "[9]; [13]", "result": 100, "unit": "mg/kg"}]}
{"smiles": "O=C1CC[C@@]2(O)[C@H]3Cc4ccc(O)c5c4[C@@]2(CCN3CC2CC2)[C@H]1O5", "note": "[naltrexone]", "values": [{"measurement": "Alcohol intake of sP rats", "setting": "[10]", "result": "reduced"}]}
{"smiles": "NCC(CC(=O)O)c1ccc(Cl)cc1", "note": "(stereo not shown) [baclofen]", "values": [{"measurement": "Alcohol intake of sP rats", "setting": "[10]", "result": "reduced"}]}
{"smiles": "COCCCC(=O)NCc1ccc(C(F)(F)F)cc1", "note": "[GET 73, 4-methoxy-N-[[4-(trifluoromethyl)phenyl]methyl]-butanamide, reference compound]", "values": [{"measurement": "Concentration inhibiting CHPG-induced increase of glutamate in hippocampal slices", "setting": "[11]", "result": 500, "unit": "nM"}, {"measurement": "Minimum effective concentration for neuroprotective effects", "setting": "[7]", "result": 1, "unit": "µM"}, {"measurement": "Effect on PR operant self-administration of alcohol", "setting": "[8]; GET73, same model", "result": "did not demonstrate any effects"}, {"measurement": "Sucrose intake", "setting": "[8]; PR, 50 mg/kg", "result": "significant reduction"}, {"measurement": "Effective Doses mg/kg", "setting": "[8]; limited to sucrose", "result": "50 # mg/kg"}, {"measurement": "Effective Doses mg/kg", "setting": "[9]; [13]", "result": "No effect"}, {"measurement": "Effect in FR4 operant self-administration", "setting": "[9]; GET73, same model", "result": "did not demonstrate any effects"}]}
{"smiles": "O=C(O)CCCO", "note": "[GHB, gamma-hydroxybutyric acid]", "values": [{"measurement": "Alcohol intake of sP rats", "setting": "[10]", "result": "reduced"}]}
